Patent US20100292205A1, “Pyrimidone Compounds As GSK-3 Inhibitors” (PFIZER INC., priority 2006, published 2010)

These compounds were tested against T1, Recombinant human GSK3β (Homo sapiens, UniProt P49841) (assay: GSK-3β (Glycogen Synthase Kinase) cell free enzyme assay). Details: cell free enzyme assay; Examples 62-155.
T1 construct: His-tag; made in house; host or cells: Sf9 insect cells / baculovirus
Format: biochemical
Description: Assay Protocol for GSK-3β (Glycogen Synthase Kinase) in a Cell Free Enzyme Assay
Recombinant human GSK3β was expressed in SF9/Baculo virus cells. His-tag protein was purified by affinity chromatography to a Ni-NTA Superflow column. Enzyme activity was assayed as the incorporation of [33P] from the gamma phosphate of [33P]ATP (PerkinElmer) into biotinylated peptide substrate bio-LC-S-R-H-S-S-P-H-Q-pS-E-D-E-E-E-OH (Anaspec). Reactions were carried out in a buffer containing 8 mM MOPS (pH 7.0), 10 mM Magnesium Acetate, 0.2 mM EDTA, 1 mM DTT and 2 uM cold ATP. The 33P-ATP was added for 0.025 uCi/well (120 uL) and the final concentration of substrate was 1.0 uM. Enzyme was preincubated with test agent for 30 minutes at room temperature followed by initiation of the reaction by the addition of substrate mix. Incubations were carried out at RT for 60 min. Reactions were stopped by addition of 0.66 volume of buffer containing: 12.5 mM EDTA, 0.25% Triton-X 100, 125 uM ATP, and 6.2 mg/ml streptavidin coated SPA beads (Amersham) in PBS without Ca or Mg. Radioactivity associated with the beads was quantified by scintillation counting of CPM in a Trilux counter (PerkinElmer).
Examples 42 to 60 were prepared using the analogous procedure described to prepare Example 41, substituting the appropriate starting material (Examples 1 to 35) and coupling with the appropriate acid. The assay protocol used is the percent inhibition at 1 μM for GSK-3β in the cell free enzyme assay described above.

T1 sequence (P49841 whole entry): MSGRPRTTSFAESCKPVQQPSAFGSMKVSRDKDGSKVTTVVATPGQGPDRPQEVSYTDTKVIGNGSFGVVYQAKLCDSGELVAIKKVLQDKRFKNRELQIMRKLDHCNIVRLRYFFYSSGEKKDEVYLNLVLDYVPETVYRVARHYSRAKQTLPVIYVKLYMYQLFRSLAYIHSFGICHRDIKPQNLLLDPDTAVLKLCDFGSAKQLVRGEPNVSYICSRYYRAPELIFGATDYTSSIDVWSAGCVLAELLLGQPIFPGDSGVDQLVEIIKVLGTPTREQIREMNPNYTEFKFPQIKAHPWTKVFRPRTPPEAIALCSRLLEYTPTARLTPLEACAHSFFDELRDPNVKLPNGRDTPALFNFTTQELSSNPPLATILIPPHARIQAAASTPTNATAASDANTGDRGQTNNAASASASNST

Row | SMILES | IC50 [nM]
1 | Cn1c(N[C@H]2[C@@H]3CN(C(=O)c4ccccc4)C[C@@H]32)nc(-c2ccncc2)cc1=O [Example 67, 2-{[(1R,5S,6s)-3-Benzoyl-3-azabicyclo[3.1.0]hex-6-yl]amino}-3-methyl-6-pyridin-4-ylpyrimidin-4(3H)-one] | 2
2 | Cn1c(N[C@@H]2CN(C(=O)c3ccccc3)C[C@@H]2F)nc(-c2ccncc2)cc1=O [Example 68, 2-{[(3R,4S)-1-Benzoyl-4-fluoropyrrolidin-3-yl]amino}-3-methyl-6-pyridin-4-ylpyrimidin-4(3H)-one] | 56
3 | CCN(c1nc(-c2ccncc2)cc(=O)n1C)C1CCN(C(=O)c2ccccc2)C1 (stereo not drawn) [Example 69, 2-[(1-Benzoylpyrrolidin-3-yl)(ethyl)amino]-3-methyl-6-pyridin-4-ylpyrimidin-4(3H)-one] | 96.1
4 | CN(c1nc(-c2ccncc2)cc(=O)n1C)C1CCN(C(=O)c2ccccc2)C1 (stereo not drawn) [Example 70, 2-[(1-Benzoylpyrrolidin-3-yl)(methyl)amino]-3-methyl-6-pyridin-4-ylpyrimidin-4(3H)-one] | 170
5 | CCN(c1nc(-c2ccncc2)cc(=O)n1C)C1CCCN(C(=O)c2ccccc2)CC1 (stereo not drawn) [Example 71, 2-[(1-Benzoylazepan-4-yl)(ethyl)amino]-3-methyl-6-pyridin-4-ylpyrimidin-4(3H)-one] | 36.3
6 | CN(c1nc(-c2ccncc2)cc(=O)n1C)C1CCCN(C(=O)c2ccccc2)CC1 (stereo not drawn) [Example 72, 2-[(1-Benzoylazepan-4-yl)(methyl)amino]-3-methyl-6-pyridin-4-ylpyrimidin-4(3H)-one] | 61.5
7 | CCN(c1nc(-c2ccncc2)cc(=O)n1C)C1CCCN(C(=O)c2ccccc2)C1 (stereo not drawn) [Example 73, 2-[(1-Benzoylpiperidin-3-yl)(ethyl)amino]-3-methyl-6-pyridin-4-ylpyrimidin-4(3H)-one] | 345
8 | CCN(c1nc(-c2ccncc2)cc(=O)n1C)C1CCN(C(=O)c2ccccc2)CC1 [Example 74, 2-[(1-Benzoylpiperidin-4-yl)(ethyl)amino]-3-methyl-6-pyridin-4-ylpyrimidin-4(3H)-one] | 144
9 | Cn1c(NC[C@@H]2CCCN2C(=O)c2ccccc2)nc(-c2ccncc2)cc1=O [Example 75, 2-({[(2S)-1-Benzoylpyrrolidin-2-yl]methyl}amino)-3-methyl-6-pyridin-4-ylpyrimidin-4(3H)-one] | 183
10 | Cn1c(NCC2CN(C(=O)c3ccccc3)C2)nc(-c2ccncc2)cc1=O [Example 76, 2-{[(1-Benzoylazetidin-3-yl)methyl]amino}-3-methyl-6-pyridin-4-ylpyrimidin-4(3H)-one] | 72.4
11 | CCN(C[C@H]1CCCN1C(=O)c1ccccc1)c1nc(-c2ccncc2)cc(=O)n1C [Example 77, 2-[{[(2R)-1-Benzoylpyrrolidin-2-yl]methyl}(ethyl)amino]-3-methyl-6-pyridin-4-ylpyrimidin-4(3H)-one] | 29.5
12 | Cn1c(NC[C@H]2CCCN2C(=O)c2ccccc2)nc(-c2ccncc2)cc1=O [Example 78, 2-({[(2R)-1-Benzoylpyrrolidin-2-yl]methyl}amino)-3-methyl-6-pyridin-4-ylpyrimidin-4(3H)-one] | 277
13 | Cn1c(NCC2CCN(C(=O)c3ccccc3)C2)nc(-c2ccncc2)cc1=O (stereo not drawn) [Example 79, 2-{[(1-Benzoylpyrrolidin-3-yl)methyl]amino}-3-methyl-6-pyridin-4-ylpyrimidin-4(3H)-one] | 69.9
14 | Cn1c(NC2CCCN(C(=O)Cc3ccccc3)CC2)nc(-c2ccncc2)cc1=O (stereo not drawn) [Example 80, 3-Methyl-2-{[1-(phenylacetyl)azepan-4-yl]amino}-6-pyridin-4-ylpyrimidin-4(3H)-one] | 53.8
15 | Cn1c(NC2CCN(C(=O)Cc3ccccc3)C2)nc(-c2ccncc2)cc1=O (stereo not drawn) [Example 81, 3-Methyl-2-{[1-(phenylacetyl)pyrrolidin-3-yl]amino}-6-pyridin-4-ylpyrimidin-4(3H)-one] | 111
16 | Cn1c(NC2CN(C(=O)Cc3ccccc3)C2)nc(-c2ccncc2)cc1=O [Example 82, 3-Methyl-2-{[1-(phenylacetyl)azetidin-3-yl]amino}-6-pyridin-4-ylpyrimidin-4(3H)-one] | 818
17 | Cn1c(N[C@H]2CN(C(=O)Cc3ccccc3)C[C@@H]2F)nc(-c2ccncc2)cc1=O [Example 83, 2-{[(3S,4S)-4-Fluoro-1-(phenylacetyl)pyrrolidin-3-yl]amino}-3-methyl-6-pyridin-4-ylpyrimidin-4(3H)-one] | 39

Row | SMILES | IC50 [nM]
18 | Cn1c(NC2CCCCN(C(=O)Cc3ccccc3)C2)nc(-c2ccncc2)cc1=O (stereo not drawn) [Example 84, 3-Methyl-2-{[1-(phenylacetyl)azepan-3-yl]amino}-6-pyridin-4-ylpyrimidin-4(3H)-one] | 674
19 | Cn1c(NC2CCN(C(=O)Cc3ccccc3)CC2)nc(-c2ccncc2)cc1=O [Example 85, 3-Methyl-2-{[1-(phenylacetyl)piperidin-4-yl]amino}-6-pyridin-4-ylpyrimidin-4(3H)-one] | 333
20 | Cn1c(NC2CCCN(C(=O)Cc3ccccc3)C2)nc(-c2ccncc2)cc1=O (stereo not drawn) [Example 86, 3-Methyl-2-{[1-(phenylacetyl)piperidin-3-yl]amino}-6-pyridin-4-ylpyrimidin-4(3H)-one] | 136
21 | Cn1c(N[C@@H]2CN(C(=O)Cc3ccccc3)C[C@@H]2F)nc(-c2ccncc2)cc1=O [Example 87, 2-{[(3R,4S)-4-Fluoro-1-(phenylacetyl)pyrrolidin-3-yl]amino}-3-methyl-6-pyridin-4-ylpyrimidin-4(3H)-one] | 285
22 | CN(c1nc(-c2ccncc2)cc(=O)n1C)C1CCCN(C(=O)Cc2ccccc2)CC1 (stereo not drawn) [Example 88, 3-Methyl-2-{methyl[1-(phenylacetyl)azepan-4-yl]amino}-6-pyridin-4-ylpyrimidin-4(3H)-one] | 102
23 | CCN(c1nc(-c2ccncc2)cc(=O)n1C)C1CCCN(C(=O)Cc2ccccc2)CC1 (stereo not drawn) [Example 89, 2-{Ethyl[1-(phenylacetyl)azepan-4-yl]amino}-3-methyl-6-pyridin-4-ylpyrimidin-4(3H)-one] | 64.6
24 | CN(c1nc(-c2ccncc2)cc(=O)n1C)C1CCN(C(=O)Cc2ccccc2)C1 (stereo not drawn) [Example 90, 3-Methyl-2-{methyl[1-(phenylacetyl)pyrrolidin-3-yl]amino}-6-pyridin-4-ylpyrimidin-4(3H)-one] | 133
25 | CCN(c1nc(-c2ccncc2)cc(=O)n1C)C1CCCN(C(=O)Cc2ccccc2)C1 (stereo not drawn) [Example 91, 2-{Ethyl[1-(phenylacetyl)piperidin-3-yl]amino}-3-methyl-6-pyridin-4-ylpyrimidin-4(3H)-one] | 147
26 | CCN(c1nc(-c2ccncc2)cc(=O)n1C)C1CCN(C(=O)Cc2ccccc2)CC1 [Example 92, 2-{Ethyl[1-(phenylacetyl)piperidin-4-yl]amino}-3-methyl-6-pyridin-4-ylpyrimidin-4(3H)-one] | 105
27 | Cn1c(NC[C@@H]2CCCN2C(=O)Cc2ccccc2)nc(-c2ccncc2)cc1=O [Example 93, 3-Methyl-2-({[(2S)-1-(phenylacetyl)pyrrolidin-2-yl]methyl}amino)-6-pyridin-4-ylpyrimidin-4(3H)-one] | 878
28 | CCN(C[C@H]1CCCN1C(=O)Cc1ccccc1)c1nc(-c2ccncc2)cc(=O)n1C [Example 94, 2-(Ethyl{[(2R)-1-(phenylacetyl)pyrrolidin-2-yl]methyl}amino)-3-methyl-6-pyridin-4-ylpyrimidin-4(3H)-one] | 18.2
29 | Cn1c(NCC2CN(C(=O)Cc3ccccc3)C2)nc(-c2ccncc2)cc1=O [Example 95, 3-Methyl-2-({[1-(phenylacetyl)azetidin-3-yl]methyl}amino)-6-pyridin-4-ylpyrimidin-4(3H)-one] | 1380
30 | CN(c1nc(-c2ccncc2F)cc(=O)n1C)[C@H]1[C@@H]2CN(C(=O)c3cccc(Cl)n3)C[C@@H]21 [Example 96, 2-[{(1R,5S,6s)-3-[(6-Chloropyridin-2-yl)carbonyl]-3-azabicyclo[3.1.0]hex-6-yl}(methyl)amino]-6-(3-fluoropyridin-4-yl)-3-methylpyrimidin-4(3H)-one] | 3.92
31 | CN(c1nc(-c2ccncc2F)cc(=O)n1C)[C@H]1[C@@H]2CN(C(=O)CC(F)(F)F)C[C@@H]21 [Example 97, 6-(3-Fluoropyridin-4-yl)-3-methyl-2-{methyl[(1R,5S,6s)-3-(3,3,3-trifluoropropanoyl)-3-azabicyclo[3.1.0]hex-6-yl]amino}pyrimidin-4(3H)-one] | 55.4
32 | CN(c1nc(-c2ccncc2F)cc(=O)n1C)[C@H]1[C@@H]2CN(C(=O)c3ccccc3C(F)(F)F)C[C@@H]21 [Example 98, 6-(3-Fluoropyridin-4-yl)-3-methyl-2-(methyl{(1R,5S,6s)-3-[2-(trifluoromethyl)benzoyl]-3-azabicyclo[3.1.0]hex-6-yl}amino)pyrimidin-4(3H)-one] | 4.39
33 | COc1cccc(C(=O)N2C[C@@H]3[C@H](C2)[C@H]3N(C)c2nc(-c3ccncc3F)cc(=O)n2C)c1 [Example 99, 6-(3-Fluoropyridin-4-yl)-2-{[(1R,5S,6s)-3-(3-methoxybenzoyl)-3-azabicyclo[3.1.0]hex-6-yl](methyl)amino}-3-methylpyrimidin-4(3H)-one] | 1.46
